The values below come from patent publication EP0657176B1, “Composition containing a water-insoluble or slightly water-soluble compound with enhanced water-solubility” (priority 1993, dated 1995).

≈ marks a conversion by molar mass, not a printed value. Where two headings read alike, the source gives them in different places.

Data set [1] deals with rats. As to the kind of experiment: Toxicity in rats, intravenous administration every day for 2 weeks (Experiment 3). The class given is in vivo. As to the method: Four male rats were used. β-CyD-G2-COOH was dissolved in sterilized water. The solution was intravenously administered to rats in daily doses of 1 ml/kg, 3 ml/kg, and 10 ml/kg (containing β-CyD-G2-COOH in amounts of 100 mg/kg, 300 mg/kg, and 1000 mg/kg, respectively) every day for 2 weeks.
As a control, the toxicity of β-CyD-G2 was studied according to the same manner.

A short description of data set [2]: Hemolytic effect on rabbit erythrocytes (Experiment 1, Fig. 1). The settings on record: rabbit, erythrocytes, phosphate buffer, pH 7.4.
Procedure: (§3) To this was added sodium 6-O-cyclomaltoheptaosyl-(6→1)-α-D-glucosyl-(4→1)-O-α-D-glucuronate (β-CyD-G2-COONa) was added so that the concentration thereof became 1 to 40 mM. The mixture was shaken at 37°C for 30 minutes and then centrifuged to separate the supernatant. […] The amount of hemoglobin bursted in water instead of isotonic phosphate buffer was used as a standard (100%), and the relative ratio to it was indicated as a hemolytic ratio.
(§4) Further, according to the same manner as that described above except using β-cyclodextrin (β-CyD) instead of β-CyD-G2-COONa, the hemolytic ratio was determined.
(§5) (Control: β-cylodextrin 4 mM, 6-O-α-D-glucosyl-(1→4)-α-D-glucosyl-β-cyclodextrin 8 mM)
For data set [3] the following is noted: cited from earlier work.
Data set [4] is described as follows: Water-solubility of the cyclodextrins themselves.
Data set [5] deals with T1, Pullulanase (Klebsiella pneumoniae, UniProt P07206).
T1 construct: purchased
T1 sequence (P07206 20-1090): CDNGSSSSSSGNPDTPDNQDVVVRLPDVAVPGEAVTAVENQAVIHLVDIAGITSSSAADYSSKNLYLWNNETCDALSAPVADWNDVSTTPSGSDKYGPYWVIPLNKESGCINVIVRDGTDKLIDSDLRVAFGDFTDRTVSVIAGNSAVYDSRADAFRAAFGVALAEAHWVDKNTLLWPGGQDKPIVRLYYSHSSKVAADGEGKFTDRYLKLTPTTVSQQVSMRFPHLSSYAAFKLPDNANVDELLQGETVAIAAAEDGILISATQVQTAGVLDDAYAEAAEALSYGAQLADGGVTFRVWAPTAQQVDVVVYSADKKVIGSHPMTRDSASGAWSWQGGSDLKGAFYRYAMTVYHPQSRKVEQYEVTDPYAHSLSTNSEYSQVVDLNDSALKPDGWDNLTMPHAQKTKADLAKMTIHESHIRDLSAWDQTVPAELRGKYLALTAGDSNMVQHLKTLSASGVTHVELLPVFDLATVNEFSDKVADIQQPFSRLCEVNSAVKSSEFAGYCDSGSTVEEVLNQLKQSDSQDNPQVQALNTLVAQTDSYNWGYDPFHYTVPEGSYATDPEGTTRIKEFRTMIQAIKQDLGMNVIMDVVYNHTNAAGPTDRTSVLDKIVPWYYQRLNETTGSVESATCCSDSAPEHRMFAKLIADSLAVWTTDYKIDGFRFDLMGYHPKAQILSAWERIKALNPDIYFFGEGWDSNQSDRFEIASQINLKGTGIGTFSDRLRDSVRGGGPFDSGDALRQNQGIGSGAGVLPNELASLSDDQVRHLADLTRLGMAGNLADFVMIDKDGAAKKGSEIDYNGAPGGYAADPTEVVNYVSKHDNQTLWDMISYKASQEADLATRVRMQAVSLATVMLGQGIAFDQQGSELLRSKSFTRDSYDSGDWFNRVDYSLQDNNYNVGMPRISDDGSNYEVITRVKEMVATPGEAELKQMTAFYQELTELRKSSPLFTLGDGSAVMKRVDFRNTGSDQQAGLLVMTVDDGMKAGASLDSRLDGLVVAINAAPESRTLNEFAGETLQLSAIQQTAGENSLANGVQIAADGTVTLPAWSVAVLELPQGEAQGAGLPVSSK
As to the kind of experiment: Stability to enzymatic treatment with pullulanase (Experiment 4, Fig. 5). The settings on record: 10 mM aqueous cyclodextrin, pullulanase 10 unit/ml, 37°C, 0 to 120 minutes; read-out: decomposed in the enzymatic treatment with pullulanase. The class given is in vitro ADME. As to the method:
(§1) As a control, 6-O-α-maltosyl-β-cyclodextrin was used. Test method: Each of prescribed amounts of the following enzymes was added to a 10 mM aqueous solution of cyclodextrin to be tested. The mixture was allowed to stand in a water bath at 37°C. 50 µl of each mixture was sampled, and the enzyme was inactivated by heating it at 100°C for 15 minutes, centrifuged at 15,000 rpm for 5 minutes, filtered through Millipore USY-1 (differential molecular weight: 10,000), diluted 10 times and subjected to HPLC analysis. HPLC analytic conditions: • Column; NH2P-50 (Asahipak) • Mobile phase; CH3CN:H2O=48:52 to which 0.005M PIC reagent was added. • Flow rate; 0.8 ml/minute • Detection; RI The ratio of the remaining cyclodextrin at 0 to 120 minutes was determined from the above HPLC analysis of each sample.
(§2) Each unit is as described in the instruction book of the enzyme obtained from above market. Results: Changes of the ratio of remaining 6-O-α-D-glucuronyl(1→4)-α-D-glucosyl-β-cyclodextrin sodium salt (branched cyclodextrin-carboxylic acid salt) and 6-O-α-maltosyl-β-cyclodextrin (branched cyclodextrin) with the passage of time are shown in Figures 3 to 6. In the figures, black triangles represent the branched cyclodextrin-carboxylic acid salt, and black dots represent the branched cyclodextrin.

Data set [6] in a line: Stability to acid: half-life in 0.1N HCl solution.
Data set [7] relates to Rabbit erythrocytes. The settings on record: phosphate buffer, pH 7.4.
Procedure: as §3, §4, §5
Data set [8] has as its target T2, β-Glucuronidase (Bos taurus, UniProt A3KMY8).
T2 construct: purchased; host or cells: calf liver (per earlier reading)
T2 sequence (A3KMY8 1-652): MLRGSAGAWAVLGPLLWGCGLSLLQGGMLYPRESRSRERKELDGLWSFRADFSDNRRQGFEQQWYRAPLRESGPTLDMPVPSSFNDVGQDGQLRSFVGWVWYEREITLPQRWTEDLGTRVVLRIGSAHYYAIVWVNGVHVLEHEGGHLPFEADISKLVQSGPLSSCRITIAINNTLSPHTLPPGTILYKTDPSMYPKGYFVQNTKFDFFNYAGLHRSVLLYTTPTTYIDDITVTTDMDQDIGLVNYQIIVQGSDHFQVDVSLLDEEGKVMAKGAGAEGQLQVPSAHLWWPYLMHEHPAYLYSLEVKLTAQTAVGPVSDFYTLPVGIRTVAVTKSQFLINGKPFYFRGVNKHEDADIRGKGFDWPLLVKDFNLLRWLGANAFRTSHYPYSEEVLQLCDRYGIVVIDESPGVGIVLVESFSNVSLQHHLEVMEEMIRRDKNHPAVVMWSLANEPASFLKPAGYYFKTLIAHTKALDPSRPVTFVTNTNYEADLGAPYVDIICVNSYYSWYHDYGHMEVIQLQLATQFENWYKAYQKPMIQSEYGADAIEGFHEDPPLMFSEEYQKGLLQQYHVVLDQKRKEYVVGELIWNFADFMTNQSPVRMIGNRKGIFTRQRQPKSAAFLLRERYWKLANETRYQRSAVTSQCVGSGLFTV
As to the kind of experiment: Stability to enzymatic treatment with β-glucuronidase (Experiment 4, Fig. 6). Format: in vitro ADME, Calf liver. To be noted: 10 mM aqueous cyclodextrin, β-glucuronidase 700 unit/ml, 37°C, 0 to 120 minutes; compared with 6-O-α-maltosyl-β-cyclodextrin. As to the method:
as §1, §2

The target in data set [9] is T3, Glucoamylase (Rhizopus oryzae, UniProt P07683).
T3 construct: purchased
Format: in vitro ADME, Rhizopus sp. To be noted: 10 mM aqueous cyclodextrin, glucoamylase 2 unit/ml, 37°C, 0 to 120 minutes; compared with 6-O-α-maltosyl-β-cyclodextrin. As to the method: as §1, §2

For data set [10] the following is noted: water.
In data set [11] the test system is Rabbit erythrocytes. Briefly: Hemolytic effect on rabbit erythrocytes (Experiment 1, Fig. 1). The settings on record: 0.25% rabbit erythrocyte suspension, 10 mM isotonic phosphate buffer (pH 7.4), 1 to 40 mM, 37°C, 30 minutes.
Procedure: as §3, §4, §5
Data set [12] deals with Human erythrocytes. Briefly: Hemolytic effect on human erythrocytes (Experiment 2, Fig. 2). The settings on record: 0.1M isotonic phosphate buffer (pH 7.4), 5 to 30 mM, 37°C, 30 minutes. The class given is cell-based. As to the method: Human erythrocytes were added to 0.1M isotonic phosphate buffer (pH 7.4) to prepare a 20% suspension. The 20% erythrocyte suspension (100 µl) was added to an isotonic buffer (4 ml) containing β-CyD-G2-COONa in a concentration of 5 to 30 mM.
The results are in Figure 2 together with the above results for comparison.

Where [13] appears, read: male rats, 100 mg/kg, 300 mg/kg and 1000 mg/kg every day for 2 weeks.

T3 sequence (P07683 26-604): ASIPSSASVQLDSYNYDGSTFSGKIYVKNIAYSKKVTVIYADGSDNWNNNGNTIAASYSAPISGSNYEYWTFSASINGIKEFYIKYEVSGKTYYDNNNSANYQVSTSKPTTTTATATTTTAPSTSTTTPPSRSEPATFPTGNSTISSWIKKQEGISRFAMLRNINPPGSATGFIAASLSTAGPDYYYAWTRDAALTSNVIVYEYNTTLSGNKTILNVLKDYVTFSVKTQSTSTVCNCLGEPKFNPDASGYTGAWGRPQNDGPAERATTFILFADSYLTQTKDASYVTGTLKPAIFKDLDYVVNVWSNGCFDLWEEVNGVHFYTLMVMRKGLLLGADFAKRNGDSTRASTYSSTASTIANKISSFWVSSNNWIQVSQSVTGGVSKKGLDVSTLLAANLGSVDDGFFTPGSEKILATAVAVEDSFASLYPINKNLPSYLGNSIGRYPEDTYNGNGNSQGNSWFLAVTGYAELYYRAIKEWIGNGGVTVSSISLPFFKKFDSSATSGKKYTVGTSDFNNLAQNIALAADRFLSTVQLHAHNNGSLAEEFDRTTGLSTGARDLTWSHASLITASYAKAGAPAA

Regarding “6-O-cyclomaltoheptaosyl-(6→1)-α-D-glucosyl-(4→1)-O-α-D-glucuronic acid [β-CyD-G2-COOH]”, in data set [1] (setting [13]), the “Pathological and histological examination” value is on record as “no serious findings such as necrosis”; the death entry is given as “No rats died”; the “general appearance, diet intake amount, body weight, urine sediments, hematological examination” value is “No abnormality was observed”.
As to `OC[C@H]1O[C@@H]2O[C@H]3[C@H](O)[C@@H](O)[C@@H](O[C@H]4[C@H](O)[C@@H](O)[C@@H](O[C@H]5[C@H](O)[C@@H](O)[C@@H](O[C@H]6[C@H](O)[C@@H](O)[C@@H](O[C@H]7[C@H](O)[C@@H](O)[C@@H](O[C@H]8[C@H](O)[C@@H](O)[C@@H](O[C@H]1[C@H](O)[C@H]2O)O[C@@H]8CO)O[C@@H]7CO)O[C@@H]6CO)O[C@@H]5CO)O[C@@H]4CO)O[C@@H]3CO` [β-CyD, β-cyclodextrin], the HC50 in data set [2] was found to be 4 mM.
As to `OC[C@H]1O[C@H](O[C@H]2[C@H](O)[C@@H](O)[C@@H](OC[C@H]3O[C@@H]4O[C@H]5[C@H](O)[C@@H](O)[C@@H](O[C@H]6[C@H](O)[C@@H](O)[C@@H](O[C@H]7[C@H](O)[C@@H](O)[C@@H](O[C@H]8[C@H](O)[C@@H](O)[C@@H](O[C@H]9[C@H](O)[C@@H](O)[C@@H](O[C@H]%10[C@H](O)[C@@H](O)[C@@H](O[C@H]3[C@H](O)[C@H]4O)O[C@@H]%10CO)O[C@@H]9CO)O[C@@H]8CO)O[C@@H]7CO)O[C@@H]6CO)O[C@@H]5CO)O[C@@H]2CO)[C@H](O)[C@@H](O)[C@@H]1O` [β-CyD-G2, 6-O-α-maltosyl-β-cyclodextrin], the “Pathological and histological examination” value in data set [1] (rats, every day for 2 weeks, 300 mg/kg and 1000 mg/kg groups) was “renal tubule epithelium vacuolation and necrosis”. Also, in [1] (rats, every day for 2 weeks, 1000 mg/kg group), the Urine examination entry is “occult blood and an increase in LDH and NAG”. In addition, the “observed signs (general appearance)” value in [1] (rats, every day for 2 weeks, groups of 300 mg/kg and 1000 mg/kg) is “Auricle flush and peripheral swelling in the extremities”. Moreover, the “water-solubility relative to that of β-cyclodextrin” value in [3] (stated as known) is “several tens of times that of β-cyclodextrin”. This compound came in with a solubility in data set [4] of 1500 mg/mL (≈ 1030 mM). In data set [2], this compound came in with an HC50 of 8 mM. For the same compound, the metabolised at 2 h, 10000 µM in [5] was roughly 60%. The same compound showed a half-life in data set [6] of 5 h.
Take “sodium 6-O-cyclomaltoheptaosyl-(6→1)-α-D-glucosyl-(4→1)-O-α-D-glucuronate [β-CyD-G2-COONa]”: the “Half-life in 0.1N HCl solution at 60°C” value amounted to 8 h. This compound also gave a 50% haemolytic concentration (HC50) in data set [7] of 11 mM. In addition, the “stability to the enzymatic treatment with β-glucuronidase” value in [8] is reported as “more stable”. Moreover, the “stability to the enzymatic treatment with glucoamylase” value in data set [9] is “more stable”. The compound also had a solubility in data set [10] greater than 200 g/100 ml. The “hemolytic effect (hemolytic ratio vs cyclodextrin concentration, Figure 1)” value in data set [11] is listed as “much less hemolytic effect than that of β-CyD”. The “hemolytic effect (hemolytic ratio vs cyclodextrin concentration, Figure 2)” value in [12] is on record as “much less hemolytic effect than that of β-CyD, β-CyD-G1 or β-CyD-G2”.
For the compound α-cyclodextrin [α-CyD], the water-solubilities entry in [3] (water) is given as “about 15%”.
